Where two headings read alike, the source gives them in different places.
How the values were obtained:
T28.2 xenografts = assay: Retransplantation xenograft, paclitaxel-sensitive control clone; format: in vivo, nude mice
Method: FIGS. 6A-6C are a series of graphs showing data that validate the A549 in vivo paclitaxel resistance model. (FIG. 6A) Tumor cell lines established after an initial round of inoculation and treatment with either vehicle (T28.2) or 15 mg/kg paclitaxel (T20.2) were harvested during log-phase growth and reinjected subcutaneously into the flanks of nude mice. When the average tumor volume was ˜120 mm^3, vehicle (open circles or squares) or 15 mg/kg paclitaxel (closed circles or squares) was administered intraperitoneally every other day. Treatment was continued until tumors reached approximately four times their initial volume. Each curve represents the average tumor growth±s.e.m. for 10 mice per group. […] Each bar represents the average tumor growth±s.e.m. for 10 mice per group. NS: not significant, *P<0.05 as determined by Wilcoxon's rank sum test. (FIG. 6C) Tumors were harvested, cultured in vitro and cell viability was assessed using the MTT assay. Values are presented as percentage of cell survival in paclitaxel-treated cells relative to untreated cells. White bars represent LC50s from tumor cell lines established from T28.2 tumors treated with vehicle. Black bars represent LC50s from cell lines established from T20.2 tumors treated with paclitaxel. Shown are the mean±s.e.m. of two independent experiments, each performed in triplicate. *P<0.05 as determined by Wilcoxon's rank sum test. […]

T20.2 cells = assay: cells; format: cell-based; details: Homo sapiens
Method: (FIG. 7A). The parental A549 cells, a cell line that became refractory during in vivo treatment with paclitaxel (T20.2 round 1) and the same cell line established after yet another round of in vivo paclitaxel treatment (T20.2 reinjection) were treated with paclitaxel and cell viability was assessed using the MTT assay. Represented are average LC50±s.e.m. determined by MTT assay for parental A549 cells (white boxes), **P<0.001, *P<0.05 as determined by Wilcoxon's rank sum test for T20.2 round 1 cells (hatched boxes) and for T20.2 re-injection cells (filled boxes). (FIG. 7B) The expression of miR-135a was examined in these cells by qRT-PCR. *P<0.05 as determined by Wilcoxon's rank sum test. […] The correlation between paclitaxel response and miR-135a expression was calculated using the Spearman's rank test. […] Subsequently, cells were treated with the indicated concentrations of paclitaxel and cell viability was assessed using the MTT assay. […]
Approximately 4×10^6 human A549 NSCLC cells were resuspended in 50% Matrigel (BD Biosciences, Bedford, Mass.) and injected subcutaneously into the hind flanks of 8-wk old male athymic (nu/nu) nude mice (Taconic Farms, Inc., Hudson, N.Y.). […] Tumor size was determined by digital caliper measurements (length and width in mm), and tumor volume (mm^3) was estimated using the formula (length×width^2)/2. […]

Structure (SMILES): CC(=O)O[C@H]1C(=O)[C@@]2(C)[C@H]([C@H](OC(=O)c3ccccc3)[C@]3(O)C[C@H](OC(=O)[C@H](O)[C@@H](NC(=O)c4ccccc4)c4ccccc4)C(C)=C1C3(C)C)[C@]1(OC(C)=O)CO[C@@H]1C[C@@H]2O [paclitaxel]
- tumor growth after paclitaxel treatment (T28.2 xenografts; 15 mg/kg paclitaxel i.p.): shrank substantially
- reduction of relative tumor burden at the end of the experiment (T28.2 xenografts; 15 mg/kg paclitaxel i.p. vs vehicle, P=0.003): 4.5 fold
- CC50 (T20.2 cells; read-out: median LC50, after one in vivo passage (T20.2 round 1), MTT, P=0.030): 13.3 nM
- CC50 (T20.2 cells; read-out: median LC50, after re-injection (T20.2 reinjection), MTT, P=0.008): 127 nM

Source: patent publication US9687467B2, “Diagnosis and treatment of taxane-resistant cancers” (Children's Medical Center Corporation, priority 2011, dated 2017)
